Experimental data published in publication PMC9295568, “Dual Inhibition of Vacuolar-ATPase and TMPRSS2 Is Required for Complete Blockade of SARS-CoV-2 Entry into Cells” (Antimicrobial Agents and Chemotherapy, 2022).
Structures can show the parent of a compound that is named as a salt. Where two headings read alike, the source gives them in different places.

Tested on: endosomal acidification in Vero cells
Assay: cells
Format: cell-based
Settings: for inhibition at 40 µM: Chlorocebus sabaeus, read-out: Percent Inhibition (%) of endosomal acidification
Procedure: Inhibition of endosomal acidification was measured using LysoTracker Red DND-99 (ThermoFisher). […] Data were plotted using Prism 9 (GraphPad).

[1] = Vero cells, 40 μM, singlet (n=1)

Compound	inhibition at 40 µM [1] [%]	further results
C=CC(C1=CC(=O)C=CC1=O)c1ccccc1 (stereo not drawn) [DALBERGIONE]	85	–
Nc1c2ccccc2nc2ccccc12 [AMINACRINE]	69	–
CC/C(=C(\c1ccccc1)c1ccc(OCCN(C)C)cc1)c1ccccc1 [TAMOXIFEN CITRATE]	82	–
Fc1ccc([C@@H]2CCNC[C@H]2COc2ccc3c(c2)OCO3)cc1 [PAROXETINE HYDROCHLORIDE]	65	–
CCN(CC)CCNc1ccc(CO)c2sc3ccccc3c(=O)c12 [HYCANTHONE]	69	–
CC(C)NCC(O)COc1cccc2[nH]c3ccccc3c12 (stereo not drawn) [CARAZOLOL]	54	–
COc1c(O)cc2oc3cc(O)c(CC=C(C)C)c(O)c3c(=O)c2c1CC=C(C)C [alpha-MANGOSTIN]	–	Percent Inhibition (%) of endosomal acidification [1]: 86%
CCCCCCCCCCCCCCCC[N+](C)(C)C [CETRIMONIUM BROMIDE]	79	–
COC(=O)CC[C@@H](C)[C@H]1CC[C@H]2[C@@H]3CC[C@@H]4C[C@H](O)CC[C@]4(C)[C@H]3C[C@H](O)[C@]12C [METHYL DEOXYCHOLATE]	63	–
Clc1ccc(C(Cn2ccnc2)OCc2c(Cl)cccc2Cl)c(Cl)c1 (stereo not drawn) [I[…]]	79	–
CCCCC(CC)CN1CN(CC(CC)CCCC)CC(C)(N)C1 (stereo not drawn) [HEXETIDINE]	84	–
Cl.N=C(N/N=C/c1ccc(Cl)cc1)N/N=C/c1ccc(Cl)cc1 [ROBENIDINE HYDROCHLORIDE]	–	Percent Inhibition (%) of endosomal acidification [1]: 76%
OCCN1CCN(CCCN2c3ccccc3Sc3ccc(C(F)(F)F)cc32)CC1 [FLUPHENAZINE HYDROCHLORIDE]	78	–
CN(C)CCC=C1c2ccccc2CCc2ccccc21 [AMITRIPTYLINE HYDROCHLORIDE]	53	–
Cc1ccc(Sc2ccccc2N2CCNCC2)c(C)c1 [VORTIOXETINE HYDROBROMIDE]	63	–
CC(C)=CCC[C@]1(C)C=Cc2c(O)c3c(c(CC=C(C)C)c2O1)O[C@]12C(=C[C@@H]4C[C@H]1C(C)(C)O[C@@]2(C/C=C(/C)C(=O)O)C4=O)C3=O [GAMBOGIC ACID]	90	–
CC(CN1c2ccccc2Sc2ccccc21)N(C)C (stereo not drawn) [PROMETHAZINE HYDROCHLORIDE]	56	–
Nc1ccc2cc3ccc(N)cc3nc2c1 [PROFLAVINE HEMISULFATE]	54	–
CCN(CC)CCOc1ccc(C(=C(Cl)c2ccccc2)c2ccccc2)cc1 [CLOMIPHENE CITRATE]	69	–
CCCC(C(=O)OCCN(CC)CC)(c1ccccc1)c1ccccc1 [PROADIFEN HYDROCHLORIDE]	59	–
COc1ccc2cc1Oc1ccc(cc1)C[C@H]1c3cc(c(OC)cc3CCN1C)Oc1c(OC)c(OC)cc3c1[C@H](C2)N(C)CC3 [TETRANDRINE]	50	–
CC(=O)c1ccc2c(c1)N(CCCN(C)C)c1ccccc1S2 [ACEPROMAZINE MALEATE]	67	–
[H]/N=C(/N)N[C@H]1[C@H](O)[C@@H](O)[C@H](O[C@@H]2O[C@@H](C)[C@](O)(C=O)[C@H]2O[C@@H]2O[C@@H](CO)[C@H](O)[C@@H](O)[C@@H]2NC)[C@@H](N/C(N)=N\[H])[C@@H]1O [STREPTOMYCIN SULFATE]	101	–

Compound	inhibition at 40 µM [1] [%]	further results
C=C(c1ccc(C(=O)O)cc1)c1cc2c(cc1C)C(C)(C)CCC2(C)C [BEXAROTENE]	64	–
C#C[C@]1(O)CC[C@H]2[C@@H]3CCC4=CCCC[C@@H]4[C@H]3CC[C@@]21C [LYNESTRENOL]	86	–
CC(C)c1ccc2c(c1)CC[C@H]1[C@](C)(CN)CCC[C@]21C [18-AMINOABIETA-8,11,13-TRIENE SULFATE]	67	–
COc1cc(NC(C)CCCN)c2ncccc2c1 (stereo not drawn) [PRIMAQUINE PHOSPHATE]	68	–
CC(CN(C)C)CN1c2ccccc2CCc2ccccc21 (stereo not drawn) [TRIMIPRAMINE MALEATE]	56	–
CN1C[C@H](CNC(=O)OCc2ccccc2)C[C@@H]2c3cccc4c3c(cn4C)C[C@H]21 [METERGOLINE]	53	–
CCN(CC)C(C)CN1c2ccccc2Sc2ccccc21 (stereo not drawn) [ETHOPROPAZINE HYDROCHLORIDE]	70	–
Oc1ccc(Cl)cc1Cc1cc(Cl)ccc1O [DICHLOROPHEN]	86	–
CN(C)c1ccc(C(=C2C=CC(=[N+](C)C)C=C2)c2ccc(N(C)C)cc2)cc1 [GENTIAN VIOLET]	95	–
CN(C)CCCN1c2ccccc2CCc2ccccc21 [IMIPRAMINE HYDROCHLORIDE]	54	–
CHLOROPHYLLIDE Cu COMPLEX Na SALT	–	Percent Inhibition (%) of endosomal acidification [1]: 77%
BENZALKONIUM CHLORIDE	–	Percent Inhibition (%) of endosomal acidification [1]: 88%
CC1=C(O)C(=O)C=C2C1=CC=C1[C@@]2(C)CC[C@@]2(C)[C@@H]3C[C@](C)(C(=O)O)CC[C@]3(C)CC[C@]12C [CELASTROL]	92	–
CC(NCCC(c1ccccc1)c1ccccc1)c1ccccc1 (stereo not drawn) [FENDILINE HYDROCHLORIDE]	73	–
CCOC(=O)Nc1ccc(NCc2ccc(F)cc2)nc1N [[…]]	50	–
COC(=O)C1(C)CCCC2(C)c3ccc(O)c(C(C)C)c3CCC12 (stereo not drawn) [TOTAROL-19-CARBOXYLIC ACID, METHYL ESTER]	–	Percent Inhibition (%) of endosomal acidification [1]: 66%
C[C@@H](O[C@H]1OCCN(Cc2n[nH]c(=O)[nH]2)[C@H]1c1ccc(F)cc1)c1cc(C(F)(F)F)cc(C(F)(F)F)c1 [APREPITANT]	62	–
OC1(c2ccc(Cl)c(C(F)(F)F)c2)CCN(CCCC(c2ccc(F)cc2)c2ccc(F)cc2)CC1 [PENFLURIDOL]	61	–
O=C1c2c(O)ccc(O)c2C(=O)c2c(NCCNCCO)ccc(NCCNCCO)c21 [MITOXANTRONE HYDROCHLORIDE]	80	–
C[C@@]12C(=O)OC(=O)[C@]1(C)[C@H]1CC[C@@H]2O1 [CANTHARIDIN]	65	–
CC(C)N1CCN(c2ccc(OCC3COC(Cn4cncn4)(c4ccc(Cl)cc4Cl)O3)cc2)CC1 (stereo not drawn) [TERCONAZOLE]	64	–
CC(=O)O[C@@H]1CC[C@@]2(C)[C@@H](CC[C@@H]3[C@@H]2CC[C@]2(C)C(=O)CC[C@@H]32)C1 [AN[…]]	50	–
CN(C)CCCN1c2ccccc2Sc2ccc(Cl)cc21 [CHLORPROMAZINE]	65	–

Compound	inhibition at 40 µM [1] [%]	further results
Clc1ccc(C(Cn2ccnc2)OCc2ccsc2Cl)c(Cl)c1 (stereo not drawn) [TIOCONAZOLE]	–	inhibition at 40 µM (Vero): 94%
Cc1ccc(C(C)C)cc2c(C)ccc1-2 [GUAIAZULENE]	64	–
CNCC[C@H](Oc1cccc2ccccc12)c1cccs1 [DULOXETINE HYDROCHLORIDE]	–	inhibition at 40 µM (Vero): 59%
C[C@@H]1CC[C@@]2(OC1)O[C@H]1[C@@H](O)[C@H]3[C@@H]4CC[C@H]5C[C@@H](O[C@@H]6O[C@H](CO)[C@H](O[C@@H]7O[C@H](CO)[C@@H](O)[C@H](O[C@@H]8OC[C@@H](O)[C@H](O)[C@H]8O)[C@H]7O[C@@H]7O[C@H](CO)[C@H](O)[C@H](O[C@@H]8O[C@H](CO)[C@@H](O)[C@H](O)[C@H]8O)[C@H]7O)[C@H](O)[C@H]6O)[C@H](O)C[C@]5(C)[C@H]4CC[C@]3(C)[C@H]1[C@@H]2C [DIGITONIN]	79	–
CN1CCc2c(c3ccccc3n2Cc2ccccc2)C1.CN1CCc2c(c3ccccc3n2Cc2ccccc2)C1.O=S(=O)(O)c1cccc2c(S(=O)(=O)O)cccc12 [MEBHYDROLIN NAPHTHALENESULFONATE]	–	Percent Inhibition (%) of endosomal acidification [1]: 52%
CCCCCCCCCc1ccc(OCCOCCOCCOCCOCCOCCOCCOCCOCCO)cc1 [NONOXYNOL-9]	91	–
CCN(CC)CCOc1ccc2c(c1)C(=O)c1cc(OCCN(CC)CC)ccc1-2 [TILORONE]	59	–
Clc1ccc(COC(Cn2ccnc2)c2ccc(Cl)cc2Cl)c(Cl)c1 (stereo not drawn) [MICONAZOLE NITRATE]	81	–
Cc1c(-c2ccc(O)cc2)n(Cc2ccc(OCCN3CCCCCC3)cc2)c2ccc(O)cc12 [BAZEDOXIFENE ACETATE]	89	–
COc1cc(-c2ccc(/N=N/c3ccc4c(S(=O)(=O)O)cc(S(=O)(=O)O)c(N)c4c3O)c(OC)c2)ccc1/N=N/c1ccc2c(S(=O)(=O)O)cc(S(=O)(=O)O)c(N)c2c1O [CHICAGO SKY BLUE]	54	–
C[C@@H]1[C@H](O)[C@@H](C)/C=C/C=C/C=C/C=C/C=C/C=C/C=C/[C@H](O[C@@H]2O[C@H](C)[C@@H](O)[C@H](N)[C@@H]2O)C[C@@H]2O[C@](O)(C[C@@H](O)C[C@@H](O)[C@H](O)CC[C@@H](O)C[C@@H](O)CC(=O)O[C@H]1C)C[C@H](O)[C@H]2C(=O)O [AMPHOTERICIN B]	60	–
CC(=O)c1ccc2c(c1)N(CCCN1CCC(CCO)CC1)c1ccccc1S2 [PIPERACETAZINE]	78	–
c1ccc(-c2ccc(C(c3ccccc3)n3ccnc3)cc2)cc1 (stereo not drawn) [BIFONAZOLE]	50	–
C1CCC(C(CC2CCCCN2)C2CCCCC2)CC1 (stereo not drawn) [PERHEXILINE MALEATE]	92	–
CC1(C)C=Cc2c(c3c(c4c(=O)c(-c5ccc(O)c(O)c5)coc24)OC(C)(C)CC3)O1 [ISOPOMIFERIN]	–	Percent Inhibition (%) of endosomal acidification [1]: 85%
CC(=O)c1ccc2c(c1)N(CCCN1CCN(CCO)CC1)c1ccccc1S2.O=C(O)/C=C\C(=O)O.O=C(O)/C=C\C(=O)O [ACETOPHENAZINE MALEATE]	–	Percent Inhibition (%) of endosomal acidification [1]: 62%
CN1CCC(=C2c3ccccc3C=Cc3ccccc32)CC1 [CYPROHEPTADINE HYDROCHLORIDE]	67	–
O=C(Nc1ccccc1)OCC(CN1CCCCC1)OC(=O)Nc1ccccc1 (stereo not drawn) [DIPERODON HYDROCHLORIDE]	54	–
CNCCCC12CCC(c3ccccc31)c1ccccc12 [MAPROTILINE HYDROCHLORIDE]	–	inhibition at 40 µM (Vero): 60%
CCCCC(CC)CNC(=N)NC(=N)NCCCCCCNC(=N)NC(=N)NCC(CC)CCCC (stereo not drawn) [ALEXIDINE HYDROCHLORIDE]	95	–
CCCCCCCCCCCCCCCCC(C(=O)O)C(O)(CC(=O)O)C(=O)O (stereo not drawn) [AGARIC ACID]	–	Percent Inhibition (%) of endosomal acidification [1]: 89%
COc1ccc2nc3cc(Cl)ccc3c(Nc3cc(CN4CCCC4)c(O)c(CN4CCCC4)c3)c2n1.O=P(O)(O)O.O=P(O)(O)O.O=P(O)(O)O.O=P(O)(O)O [PYRONARIDINE TETRAPHOSPHATE]	–	Percent Inhibition (%) of endosomal acidification [1]: 70%
CC1Cc2ccccc2N1NC(=O)c1ccc(Cl)c(S(N)(=O)=O)c1 (stereo not drawn) [INDAPAMIDE]	101	–
